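Test compounds were applied to cells in 96-well plates for 48 hours at 5 doses. GI50 = concentration required for 50% inhibition of growth.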 Calls of active or inactive are those of the source. Cut-off read from the data, not from the text of the source: active = GI50 up to about 1.1 µM and inactive = higher.
How the values were obtained:
Experiment in all cases: NCI tumour cell line growth inhibition, 48 h
A498 = system: A498
A549 = system: A549
ACHN = system: ACHN
BT-549 = system: BT-549
CAKI-1 = system: CAKI-1
CCRF-CEM = system: CCRF-CEM
COLO 205 = system: COLO 205
DU-145 = system: DU-145
EKVX = system: EKVX
HCC 2998 = system: HCC 2998
HCT-116 = system: HCT-116
HCT-15 = system: HCT-15
HL-60 = system: HL-60
HOP-62 = system: HOP-62
HOP-92 = system: HOP-92
HT-29 = system: HT-29
Hs-578T = system: Hs-578T
IGROV-1 = system: IGROV-1
K562 = system: K562
KM12 = system: KM12
LOX IMVI = system: LOX IMVI
M14 = system: M14
MCF7 = system: MCF7
MDA-MB-231 = system: MDA-MB-231
MDA-MB-435 = system: MDA-MB-435
MDA-N = system: MDA-N
MOLT-4 = system: MOLT-4
Malme-3M = system: Malme-3M
NCI-H522 = system: NCI-H522
NCI/ADR-RES = system: NCI/ADR-RES
OVCAR-3 = system: OVCAR-3
OVCAR-5 = system: OVCAR-5
OVCAR-8 = system: OVCAR-8
PC-3 = system: PC-3
RPMI-8226 = system: RPMI-8226
RXF 393 = system: RXF 393
SF-268 = system: SF-268
SF-295 = system: SF-295
SF-539 = system: SF-539
SK-MEL-28 = system: SK-MEL-28
SK-MEL-2 = system: SK-MEL-2
SK-MEL-5 = system: SK-MEL-5
SK-OV-3 = system: SK-OV-3
SN12C = system: SN12C
SNB-19 = system: SNB-19
SNB-75 = system: SNB-75
SR = system: SR
T47D = system: T47D
TK-10 = system: TK-10
U-251 = system: U-251
UACC-257 = system: UACC-257
UACC-62 = system: UACC-62
UO-31 = system: UO-31
786-0 = system: 786-0
NCI-H226 = system: NCI-H226
NCI-H23 = system: NCI-H23
NCI-H460 = system: NCI-H460
OVCAR-4 = system: OVCAR-4
SW-620 = system: SW-620

CCN(CC)C(=S)N/N=C(\C)c1cccc(C)n1
GI50 (A498): 0.183 µM (active)
GI50 (A549): 0.259 µM (active)
GI50 (ACHN): 0.0184 µM (active)
GI50 (BT-549): 0.776 µM (active)
GI50 (CAKI-1): 0.31 µM (active)
GI50 (CCRF-CEM): < 0.01 µM (active)
GI50 (COLO 205): < 0.01 µM (active)
GI50 (DU-145): 0.484 µM (active)
GI50 (EKVX): < 0.01 µM (active)
GI50 (HCC 2998): 0.363 µM (active)
GI50 (HCT-116): < 0.01 µM (active)
GI50 (HCT-15): < 0.0249 µM
GI50 (HL-60): < 0.01 µM (active)
GI50 (HOP-62): 0.102 µM (active)
GI50 (HOP-92): 1.49 µM (inactive)
GI50 (HT-29): < 0.01 µM (active)
GI50 (Hs-578T): 23.4 µM (inactive)
GI50 (IGROV-1): < 0.01 µM (active)
GI50 (K562): < 0.01 µM (active)
GI50 (KM12): 0.201 µM (active)
GI50 (LOX IMVI): < 0.01 µM (active)
GI50 (M14): < 0.041 µM (active)
GI50 (MCF7): < 0.01 µM (active)
GI50 (MDA-MB-231): < 0.01 µM (active)
GI50 (MDA-MB-435): 0.377 µM (active)
GI50 (MDA-N): 0.474 µM (active)
GI50 (MOLT-4): < 0.01 µM (active)
GI50 (Malme-3M): 0.0365 µM (active)
GI50 (NCI-H522): 0.0276 µM (active)
GI50 (NCI/ADR-RES): < 0.01 µM (active)
GI50 (OVCAR-3): < 0.01 µM (active)
GI50 (OVCAR-5): 2.08 µM (inactive)
GI50 (OVCAR-8): 0.287 µM (active)
GI50 (PC-3): < 0.01 µM (active)
GI50 (RPMI-8226): < 0.01 µM (active)
GI50 (RXF 393): 0.568 µM (active)
GI50 (SF-268): 0.0593 µM (active)
GI50 (SF-295): 0.315 µM (active)
GI50 (SF-539): 0.239 µM (active)
GI50 (SK-MEL-28): 0.308 µM (active)
GI50 (SK-MEL-2): 2.2 µM (inactive)
GI50 (SK-MEL-5): 0.0593 µM (active)
GI50 (SK-OV-3): 1.57 µM (inactive)
GI50 (SN12C): 0.292 µM (active)
GI50 (SNB-19): 0.571 µM (active)
GI50 (SNB-75): 4.11 µM (inactive)
GI50 (SR): < 0.0182 µM (active)
GI50 (T47D): < 0.01 µM (active)
GI50 (TK-10): 0.832 µM (active)
GI50 (U-251): < 0.0431 µM (active)
GI50 (UACC-257): < 0.01 µM (active)
GI50 (UACC-62): 0.259 µM (active)
GI50 (UO-31): 0.133 µM (active)

O=C(CC(c1ccccc1)C1C(=O)NC(=S)NC1=O)c1ccc([N+](=O)[O-])cc1 (stereo unspecified)
GI50 (786-0): > 100 µM (inactive)
GI50 (A498): > 100 µM (inactive)
GI50 (A549): > 100 µM (inactive)
GI50 (ACHN): > 100 µM (inactive)
GI50 (BT-549): > 100 µM (inactive)
GI50 (CAKI-1): 22.4 µM (inactive)
GI50 (CCRF-CEM): > 100 µM (inactive)
GI50 (COLO 205): > 100 µM (inactive)
GI50 (DU-145): > 100 µM (inactive)
GI50 (EKVX): 31.8 µM (inactive)
GI50 (HCC 2998): 31.6 µM (inactive)
GI50 (HCT-116): 76.6 µM (inactive)
GI50 (HCT-15): > 100 µM
GI50 (HL-60): > 100 µM (inactive)
GI50 (HOP-62): > 100 µM (inactive)
GI50 (HOP-92): > 100 µM (inactive)
GI50 (HT-29): > 100 µM (inactive)
GI50 (Hs-578T): > 100 µM (inactive)
GI50 (IGROV-1): > 100 µM (inactive)
GI50 (K562): > 100 µM (inactive)
GI50 (KM12): 65.2 µM (inactive)
GI50 (LOX IMVI): 63.4 µM (inactive)
GI50 (M14): > 100 µM (inactive)
GI50 (MCF7): 17.7 µM (inactive)
GI50 (MDA-MB-231): > 100 µM (inactive)
GI50 (MDA-MB-435): > 100 µM (inactive)
GI50 (MDA-N): > 100 µM (inactive)
GI50 (MOLT-4): > 100 µM (inactive)
GI50 (Malme-3M): > 100 µM (inactive)
GI50 (NCI-H226): > 100 µM (inactive)
GI50 (NCI-H23): > 100 µM (inactive)
GI50 (NCI-H460): > 100 µM (inactive)
GI50 (NCI-H522): > 100 µM (inactive)
GI50 (NCI/ADR-RES): > 100 µM (inactive)
GI50 (OVCAR-3): > 100 µM (inactive)
GI50 (OVCAR-4): > 100 µM (inactive)
GI50 (OVCAR-5): > 100 µM (inactive)
GI50 (OVCAR-8): > 100 µM (inactive)
GI50 (PC-3): > 100 µM (inactive)
GI50 (RPMI-8226): 45.9 µM (inactive)
GI50 (SF-268): 72.8 µM (inactive)
GI50 (SF-295): > 100 µM (inactive)
GI50 (SF-539): > 100 µM (inactive)
GI50 (SK-MEL-28): > 100 µM (inactive)
GI50 (SK-MEL-2): > 100 µM (inactive)
GI50 (SK-MEL-5): > 100 µM (inactive)
GI50 (SK-OV-3): > 100 µM (inactive)
GI50 (SN12C): > 100 µM (inactive)
GI50 (SNB-19): > 100 µM (inactive)
GI50 (SNB-75): > 100 µM (inactive)
GI50 (SR): 41.1 µM (inactive)
GI50 (SW-620): > 100 µM (inactive)
GI50 (T47D): 17.8 µM (inactive)
GI50 (TK-10): > 100 µM (inactive)
GI50 (U-251): > 100 µM (inactive)
GI50 (UACC-257): > 100 µM (inactive)
GI50 (UACC-62): > 100 µM (inactive)
GI50 (UO-31): > 100 µM (inactive)
